In ChEMBL document CHEMBL1201862, “PubChem BioAssay data set” (2004):
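96-well plates; 48 h exposure; 5 concentrations. Endpoints by linear interpolation between flanking doses. Not reached: highest tested concentration assigned. At the GI50, growth is halved.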 Calls of active or inactive are those of the source. No stated cut-off is given here; in the data, active = GI50 up to about 1.1 µM and inactive = higher.

Assays:
Assay in all cases: NCI anticancer screen, dose series, 48 h
[1] = tested on: UACC-257
[2] = tested on: NCI/ADR-RES
[3] = tested on: ACHN
[4] = tested on: A498
[5] = tested on: MDA-MB-435
[6] = tested on: SK-MEL-5
[7] = tested on: UACC-62
[8] = tested on: NCI-H226
[9] = tested on: RPMI-8226
[10] = tested on: OVCAR-3
[11] = tested on: DU-145
[12] = tested on: HOP-92
[13] = tested on: A549
[14] = tested on: T47D
[15] = tested on: NCI-H23
[16] = tested on: OVCAR-5
[17] = tested on: PC-3
[18] = tested on: OVCAR-4
[19] = tested on: CCRF-CEM
[20] = tested on: SR

Measured: GI50

COc1cc2c(cc1OCCCOS(C)(=O)=O)N=C[C@@H]1CCCN1C2=O
inactive: [1] > 100 µM | [2] > 100 µM | [3] > 100 µM | [4] > 100 µM | [5] > 100 µM | [6] > 100 µM | [7] > 100 µM | [8] > 100 µM | [9] > 100 µM | [10] > 100 µM | [11] > 100 µM | [12] > 100 µM | [13] > 100 µM | [14] > 100 µM | [15] > 100 µM

CC(C)(CO)N1CCN(C(S)=Nc2ccccc2)CC1
inactive: [16] > 100 µM | [17] > 100 µM | [1] > 100 µM | [2] > 100 µM | [3] > 100 µM | [4] > 100 µM | [18] > 100 µM | [5] > 100 µM | [6] > 100 µM | [7] > 100 µM | [8] > 100 µM | [9] > 100 µM | [10] > 100 µM | [12] > 100 µM | [13] > 100 µM | [14] > 100 µM | [15] > 100 µM

CC(=O)CC1CCC(=O)CCC(=O)OC(CC(C)=O)CCC(=O)CCC(=O)O1 (stereo not given)
inactive: [16] > 100 µM | [17] > 100 µM | [19] > 100 µM | [1] > 100 µM | [2] > 100 µM | [3] > 100 µM | [18] > 100 µM | [5] > 100 µM | [6] > 100 µM | [7] > 100 µM | [8] > 100 µM | [9] > 100 µM | [10] > 100 µM | [11] > 100 µM | [12] > 100 µM | [13] > 100 µM | [14] > 100 µM | [15] > 100 µM

Cc1ccc(/N=N/C(=O)NNc2ccc(C)c([N+](=O)[O-])c2)cc1[N+](=O)[O-]
inactive: [16] 30.1 µM | [17] 18.7 µM | [19] 19.2 µM | [1] 25.8 µM | [3] 24.8 µM | [4] 14.7 µM | [18] 19.4 µM | [5] 36.5 µM | [6] 22.9 µM | [7] 13.9 µM | [8] 51.9 µM | [9] 19.9 µM | [10] 28.1 µM | [11] 25.1 µM | [20] 18.9 µM | [13] 28.8 µM | [14] 4.45 µM | [15] 30.2 µM

COC(=O)C1(C(=O)OC)CC(=O)c2c(OC(=O)c3cccc(OC)c3C#N)ccc(OC(=O)c3cccc(OC)c3C#N)c2C1
inactive: [16] > 100 µM | [17] > 100 µM | [19] > 100 µM | [1] > 100 µM | [2] > 100 µM | [3] > 100 µM | [4] 31.3 µM | [18] > 100 µM | [5] > 100 µM | [6] > 100 µM | [7] > 100 µM | [8] > 100 µM | [9] 39.1 µM | [10] > 100 µM | [11] > 100 µM | [12] 83.8 µM | [20] 26.9 µM | [13] > 100 µM | [15] > 100 µM

NC(=S)NS(=O)(=O)c1ccc(Cl)cc1
inactive: [16] > 100 µM | [17] > 100 µM | [19] > 100 µM | [1] > 100 µM | [2] > 100 µM | [3] > 100 µM | [18] > 100 µM | [5] > 100 µM | [6] > 100 µM | [7] > 100 µM | [8] > 100 µM | [9] > 100 µM | [10] > 100 µM | [11] > 100 µM | [13] > 100 µM | [14] > 100 µM | [15] > 100 µM

CCC(C)C(NC(=O)c1cccc2c(=O)c3ccccc3[nH]c12)C(=O)O (stereo not given)
inactive: [16] > 100 µM | [17] > 100 µM | [19] 64 µM | [2] > 100 µM | [3] 86.7 µM | [4] > 100 µM | [18] 43.8 µM | [5] > 100 µM | [6] > 100 µM | [7] > 100 µM | [8] > 100 µM | [9] 57.1 µM | [10] > 100 µM | [11] > 100 µM | [12] 94.4 µM | [20] > 100 µM | [13] 98.9 µM | [15] > 100 µM

CCOC(=O)/C(C(=S)Nc1ccccc1)=C(/N)N1CCCC1
inactive: [16] > 100 µM | [17] 38.9 µM | [19] 46.1 µM | [1] > 100 µM | [2] > 100 µM | [3] > 100 µM | [4] > 100 µM | [18] > 100 µM | [5] 37.9 µM | [6] > 100 µM | [7] > 100 µM | [8] > 100 µM | [9] > 100 µM | [10] > 100 µM | [11] > 100 µM | [12] 2.1 µM | [20] > 100 µM | [13] > 100 µM | [15] > 100 µM

CCCCC1C=Cn2c(=O)oc3c(OC(C)C)c(OC(C)C)c(O)c1c32 (stereo not given)
inactive: [16] 17.2 µM | [17] 38.2 µM | [19] 8.49 µM | [1] 15.6 µM | [3] 36.6 µM | [4] 17.1 µM | [18] 21.5 µM | [5] 12.5 µM | [6] 14.7 µM | [7] 13.4 µM | [8] 14 µM | [10] 16.4 µM | [11] 14.8 µM | [12] 14.3 µM | [13] 17.2 µM | [14] 4.44 µM | [15] 12.2 µM

CC(C)(C)C1CCC2c3c([nH]c4ccccc34)C3C(=O)N(c4cc(Cl)ccc4Cl)C(=O)C3C2C1 (stereo not given)
inactive: [16] > 100 µM | [17] > 100 µM | [19] > 100 µM | [1] > 100 µM | [2] > 100 µM | [3] > 100 µM | [4] > 100 µM | [5] > 100 µM | [6] > 100 µM | [7] > 100 µM | [8] > 100 µM | [9] > 100 µM | [10] > 100 µM | [11] > 100 µM | [12] 65.8 µM | [20] > 10 µM | [13] > 100 µM | [15] > 100 µM

C[n+]1c(-c2ccc(/C=N/Nc3ccnc(N/N=C/c4ccc(-c5cn6ccsc6[n+]5C)cc4)n3)cc2)cn2ccsc21
inactive: [16] 19.1 µM | [17] 30.2 µM | [19] 14.9 µM | [1] 25.5 µM | [2] 39.7 µM | [3] 23.9 µM | [4] 27.9 µM | [18] 51.9 µM | [5] 4.57 µM | [6] 19.3 µM | [7] 25.1 µM | [8] 17.7 µM | [9] 8.61 µM | [10] > 100 µM | [11] 27.7 µM | [12] 31.5 µM | [20] 11.3 µM | [13] 28.6 µM | [15] 22.9 µM
